In patent US12492188B2, “1H-benzo[D]imidazole derivatives as TLR9 inhibitors for the treatment of fibrosis” (BRISTOL-MYERS SQUIBB COMPANY, priority 2020, dated 2025):
Like-named read-outs stand apart in the source and are kept apart here.

Columns and labels:
Type in all cases: cell-based
human TLR7 = biological target: T1, human TLR7 (Homo sapiens, UniProt Q9NYK1); experiment: TLR7 inhibition reporter assay (HEK-Blue cells, secreted embryonic alkaline phosphatase reporter); details: HEK-Blue cells overexpressing human TLR7, stimulated with gardiquimod 7.5 μM; read-out: TLR 7 IC50
T1 construct: host or cells: HEK-Blue cells (HEK293-derived reporter line)
T1 sequence (Q9NYK1 27-1049): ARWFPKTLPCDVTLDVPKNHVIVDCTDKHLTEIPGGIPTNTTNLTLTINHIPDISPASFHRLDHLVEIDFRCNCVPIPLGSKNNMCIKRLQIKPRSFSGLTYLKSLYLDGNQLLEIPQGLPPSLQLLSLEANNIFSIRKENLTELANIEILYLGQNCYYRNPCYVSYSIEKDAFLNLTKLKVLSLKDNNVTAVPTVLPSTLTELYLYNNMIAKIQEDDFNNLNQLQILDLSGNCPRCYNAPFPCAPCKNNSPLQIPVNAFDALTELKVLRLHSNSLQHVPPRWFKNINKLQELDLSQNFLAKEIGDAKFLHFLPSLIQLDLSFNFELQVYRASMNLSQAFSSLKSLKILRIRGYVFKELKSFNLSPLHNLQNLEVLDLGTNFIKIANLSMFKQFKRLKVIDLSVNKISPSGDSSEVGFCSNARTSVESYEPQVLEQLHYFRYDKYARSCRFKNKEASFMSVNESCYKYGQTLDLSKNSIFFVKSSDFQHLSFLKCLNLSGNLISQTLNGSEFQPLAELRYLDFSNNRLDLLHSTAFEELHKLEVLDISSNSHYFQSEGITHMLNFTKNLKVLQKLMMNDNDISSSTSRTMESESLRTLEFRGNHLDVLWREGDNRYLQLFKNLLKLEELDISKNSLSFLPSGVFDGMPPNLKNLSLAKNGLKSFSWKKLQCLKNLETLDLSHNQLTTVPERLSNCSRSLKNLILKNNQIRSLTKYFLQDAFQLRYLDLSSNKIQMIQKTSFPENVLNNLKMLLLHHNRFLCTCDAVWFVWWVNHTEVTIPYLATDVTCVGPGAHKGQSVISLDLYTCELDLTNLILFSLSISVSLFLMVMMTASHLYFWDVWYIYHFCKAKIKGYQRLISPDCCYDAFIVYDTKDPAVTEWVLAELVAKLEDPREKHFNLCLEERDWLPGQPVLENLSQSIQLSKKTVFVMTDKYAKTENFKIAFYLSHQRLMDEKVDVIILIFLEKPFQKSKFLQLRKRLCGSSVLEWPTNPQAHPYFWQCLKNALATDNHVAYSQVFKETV
Summary of the method: (§1)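 Agonist-driven SEAP output was measured in HEK-Blue reporter cells carrying human TLR7 (gardiquimod 7.5 μM), TLR8 (R848 15.9 μM) or TLR9 (ODN2006 5 nM). Compounds at 0.05 nM–50 μM final were added 30 min before stimulation at room temperature. After 22 h at 37 °C, percent inhibition was taken against agonist/DMSO wells and a reference inhibitor.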

human TLR9 = biological target: T2, human TLR9 (Homo sapiens, UniProt Q9NR96); experiment: TLR9 inhibition reporter assay (HEK-Blue cells, secreted embryonic alkaline phosphatase reporter)
T2 construct: host or cells: HEK-Blue cells (HEK293-derived reporter line)
T2 sequence (Q9NR96 26-1032): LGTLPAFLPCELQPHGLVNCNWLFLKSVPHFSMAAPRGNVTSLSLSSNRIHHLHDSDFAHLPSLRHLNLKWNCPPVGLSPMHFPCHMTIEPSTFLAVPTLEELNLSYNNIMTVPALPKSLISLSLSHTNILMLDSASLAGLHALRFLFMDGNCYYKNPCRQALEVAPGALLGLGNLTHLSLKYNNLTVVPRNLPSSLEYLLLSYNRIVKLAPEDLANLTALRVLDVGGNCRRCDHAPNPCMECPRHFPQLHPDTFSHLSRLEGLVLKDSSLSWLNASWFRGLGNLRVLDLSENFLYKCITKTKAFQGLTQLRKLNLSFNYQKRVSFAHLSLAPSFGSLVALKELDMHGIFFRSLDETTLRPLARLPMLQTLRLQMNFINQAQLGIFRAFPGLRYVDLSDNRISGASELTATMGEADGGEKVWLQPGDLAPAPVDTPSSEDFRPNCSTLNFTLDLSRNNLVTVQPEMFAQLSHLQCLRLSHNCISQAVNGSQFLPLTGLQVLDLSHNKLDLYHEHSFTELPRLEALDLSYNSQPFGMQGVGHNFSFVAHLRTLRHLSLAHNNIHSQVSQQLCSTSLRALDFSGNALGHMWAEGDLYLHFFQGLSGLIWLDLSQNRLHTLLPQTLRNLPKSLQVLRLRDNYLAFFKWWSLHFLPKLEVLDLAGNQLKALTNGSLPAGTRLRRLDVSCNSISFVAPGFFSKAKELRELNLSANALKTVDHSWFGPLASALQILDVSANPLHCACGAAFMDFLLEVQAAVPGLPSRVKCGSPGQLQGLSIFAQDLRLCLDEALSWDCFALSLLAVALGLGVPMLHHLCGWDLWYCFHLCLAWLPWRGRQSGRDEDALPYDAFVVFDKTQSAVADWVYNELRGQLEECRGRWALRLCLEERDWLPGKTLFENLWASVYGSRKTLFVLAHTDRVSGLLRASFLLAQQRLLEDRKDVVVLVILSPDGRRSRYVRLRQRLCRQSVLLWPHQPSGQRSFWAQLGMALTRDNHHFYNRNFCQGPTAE
Summary of the method: as §1

human TLR8 = biological target: T3, human TLR8 (Homo sapiens, UniProt Q9NR97); experiment: TLR8 inhibition reporter assay (HEK-Blue cells, secreted embryonic alkaline phosphatase reporter); details: HEK-Blue cells overexpressing human TLR8, stimulated with R848 15.9 μM; read-out: TLR 8 IC50
T3 construct: host or cells: HEK-Blue cells (HEK293-derived reporter line)
T3 sequence (Q9NR97 27-1041): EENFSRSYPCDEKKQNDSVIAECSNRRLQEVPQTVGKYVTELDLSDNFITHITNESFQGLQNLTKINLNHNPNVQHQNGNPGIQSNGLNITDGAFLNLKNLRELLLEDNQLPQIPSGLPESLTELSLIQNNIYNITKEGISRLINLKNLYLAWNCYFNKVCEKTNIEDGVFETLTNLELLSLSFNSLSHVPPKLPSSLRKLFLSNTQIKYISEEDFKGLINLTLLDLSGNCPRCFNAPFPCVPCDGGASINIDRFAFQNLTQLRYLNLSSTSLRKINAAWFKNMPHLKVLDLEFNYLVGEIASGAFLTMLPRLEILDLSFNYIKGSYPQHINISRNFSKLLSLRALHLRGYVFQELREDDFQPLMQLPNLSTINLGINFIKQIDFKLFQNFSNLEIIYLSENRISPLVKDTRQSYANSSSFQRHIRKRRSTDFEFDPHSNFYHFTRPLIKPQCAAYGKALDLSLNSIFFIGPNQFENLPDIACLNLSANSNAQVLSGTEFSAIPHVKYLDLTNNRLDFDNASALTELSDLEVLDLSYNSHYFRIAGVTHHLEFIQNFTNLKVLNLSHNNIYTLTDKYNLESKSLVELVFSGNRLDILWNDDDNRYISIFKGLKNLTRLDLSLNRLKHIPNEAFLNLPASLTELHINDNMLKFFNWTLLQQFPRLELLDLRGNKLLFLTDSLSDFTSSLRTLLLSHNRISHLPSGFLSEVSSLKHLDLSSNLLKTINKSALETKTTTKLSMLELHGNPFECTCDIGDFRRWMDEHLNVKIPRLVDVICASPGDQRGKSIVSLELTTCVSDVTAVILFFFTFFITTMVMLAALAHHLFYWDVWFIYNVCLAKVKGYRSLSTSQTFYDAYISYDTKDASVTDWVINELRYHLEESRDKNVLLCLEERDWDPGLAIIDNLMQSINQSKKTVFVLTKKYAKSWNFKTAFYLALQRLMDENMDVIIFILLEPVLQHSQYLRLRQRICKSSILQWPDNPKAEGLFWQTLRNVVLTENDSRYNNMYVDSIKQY
Summary of the method: as §1

[1] = HEK-Blue cells overexpressing human TLR9, stimulated with ODN2006 5 nM, read-out: TLR 9 IC50
[2] = HEK-Blue cells overexpressing human TLR9, stimulated with ODN2006 5 nM, 22 hour incubation, reporter readout

Row | IC50 (human TLR7) [nM] | IC50 (human TLR9) [nM] | IC50 (human TLR9; [1]) [nM] | IC50 (human TLR8) [nM] | IC50 (human TLR9; [2]) [nM] | IC50 (human TLR9; HEK-Blue human TLR9 reporter cells) [nM] | Structure (SMILES)
1 | 23500 | 52 | 52 | > 25000 |  |  | Cc1cc(C2CCN(C3CC4CCC(C3)N4C3CCOCC3)CC2)cc2c1nc(-c1ccc(S(C)(=O)=O)cc1)n2C (single isomer, unassigned) [Example 160, 1,4-dimethyl-2-(4-(methylsulfonyl)phenyl)-6-(1-(8-(tetrahydro-2H-pyran-4-yl)-8-azabicyclo[3.2.1]octan-3-yl)piperidin-4-yl)-1H-benzo[d]imidazole]
2 | 7700 |  |  | > 50000 | 29 |  | COc1ccc(-c2nc3c(C)cc(C4CCN(C5CC6CCC(C5)N6CC(C)C)CC4)cc3n2C)cc1OC (single isomer, unassigned) [Example 18, 2-(3,4-dimethoxyphenyl)-6-(1-(8-isobutyl-8-azabicyclo[3.2.1]octan-3-yl)piperidin-4-yl)-1,4-dimethyl-1H-benzo[d]imidazole]
3 | 3000 |  |  | > 50000 | 48 |  | COc1ccc(-c2nc3c(C)cc(C4CCN(C5CCN(C(C)C)CC5)CC4)cc3[nH]2)cc1F [Example 24, 2-(3-fluoro-4-methoxyphenyl)-6-(1′-isopropyl-[1,4′-bipiperidin]-4-yl)-4-methyl-1H-benzo[d]imidazole]
4 | 25400 |  | 77 | > 50000 |  | 77 | Cc1cc(C2CCN(C3CC4CCC(C3)N4CC3CC3)CC2)cc2[nH]c(-c3ccc(S(C)(=O)=O)cc3)nc12 (centres unmarked) [Example 336, 6-(1-(8-(cyclopropylmethyl)-8-azabicyclo[3.2.1]octan-3-yl)piperidin-4-yl)-4-methyl-2-(4-(methylsulfonyl)phenyl)-1H-benzo[d]imidazole]
5 | 3400 |  | 208 | > 50000 | 210 |  | COc1ccc(-c2nc3cc(C4CCN(C5CCN(CC(C)C)CC5)CC4)ccc3n2CC(F)F)cc1OC [Example 38, 1-(2,2-difluoroethyl)-2-(3,4-dimethoxyphenyl)-5-(1′-isobutyl-[1,4′-bipiperidin]-4-yl)-1H-benzo[d]imidazole]
6 | 9300 |  | 140 | > 50000 | 140 |  | COc1ccc(-c2nc3c(C)cc(C4CCN(C5CCN(C6CC6)CC5)CC4)cc3n2C)cc1F [Example 55, 6-(1′-cyclopropyl-[1,4′-bipiperidin]-4-yl)-2-(3-fluoro-4-methoxyphenyl)-1,4-dimethyl-1H-benzo[d]imidazole]
7 | > 50000 | 480 | 480 | > 50000 |  |  | Cc1cc(-c2ccc(N3CCN(C4CCC4)CC3)cc2)cc2c1nc(-c1ccc(S(C)(=O)=O)cc1)n2C [Example 174, 6-(4-(4-cyclobutylpiperazin-1-yl)phenyl)-1,4-dimethyl-2-(4-(methylsulfonyl)phenyl)-1H-benzo[d]imidazole]
8 | > 50000 | 4700 | 4660 | > 50000 |  |  | Cn1c(-c2ccc(S(C)(=O)=O)cc2)nc2cc(C3CCN(C4CC5CCC(C4)N5C4COC4)CC3)cc(F)c21 (single isomer, unassigned) [Example 214, 7-fluoro-1-methyl-2-(4-(methylsulfonyl)phenyl)-5-(1-(8-(oxetan-3-yl)-8-azabicyclo[3.2.1]octan-3-yl)piperidin-4-yl)-1H-benzo[d]imidazole]
9 | > 50000 |  |  | > 50000 | 310 |  | Cc1cc(-c2ccc(C3CCN(C4CCOCC4)CC3)cc2)cc2c1nc(-c1ccc(S(C)(=O)=O)cc1)n2C [Example 364, 1,4-dimethyl-2-(4-(methylsulfonyl)phenyl)-6-(4-(1-(tetrahydro-2H-pyran-4-yl)piperidin-4-yl)phenyl)-1H-benzo[d]imidazole]
10 | > 50000 | 280 | 278 | > 50000 |  |  | Cn1c(-c2ccc(S(C)(=O)=O)cc2)nc2cc(C3CCN(C4CC5CCC(C4)N5C4COC4)CC3)c(F)cc21 (single isomer, unassigned) [Example 253, 6-fluoro-1-methyl-2-(4-(methylsulfonyl)phenyl)-5-(1-(8-(oxetan-3-yl)-8-azabicyclo[3.2.1]octan-3-yl)piperidin-4-yl)-1H-benzo[d]imidazole]

Row | Structure (SMILES) | IC50 (human TLR7) [nM] | IC50 (human TLR9) [nM] | IC50 (human TLR9; [1]) [nM] | IC50 (human TLR8) [nM] | IC50 (human TLR9; [2]) [nM] | IC50 (human TLR9; HEK-Blue human TLR9 reporter cells) [nM]
11 | CCOP(=O)(OCC)c1ccc(-c2nc3c(C)cc(C4CCN(C5CCN(C(C)C)CC5)CC4)cc3n2C)cc1 [Example 420, diethyl(4-(6-(1′-isopropyl-[1,4′-bipiperidin]-4-yl)-1,4-dimethyl-1H-benzo[d]imidazol-2-yl)phenyl)phosphonate] | > 50000 |  | 136 | 42200 | 140 | 
